Reference: US9113629B2, “4-amino-6-(4-substituted-phenyl)-picolinates and 6-amino-2-(4-substituted-phenyl)-pyrimidine-4-carboxylates and their use as herbicides” (DOW AGROSCIENCES LLC, priority 2013, dated 2015)
Read-outs that look alike come from different tables or passages of the source.

Tests used:
[1] = tested on: Key Broadleaf Weed and Crop Species; test: Post-emergent Test II herbicidal activity (Table 5); type: in vivo; settings: post-emergence, 336 h, 14 days after application; for pest or weed control at 70 g/ha: application rate 70 g ai/ha; for pest or weed control at 140 g/ha: application rate 140 g ai/ha
Summary of the method: (§1)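 Injury was rated visually 14 d after treatment on a 0–100% scale against untreated controls. Test compounds, formulated with crop oil concentrate and surfactant and serially diluted down to 1/16× of the top rate, were applied by track sprayer at 187 L/ha onto first- to second-true-leaf seedlings.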

[2] = tested on: Key Grass and Sedge Weeds as well as Grass Crops; test: Post-emergent Test II herbicidal activity (Table 6); type: in vivo; settings: post-emergence, 336 h; for pest or weed control at 70 g/ha: 70 g ai/ha; for pest or weed control at 140 g/ha: 140 g ai/ha
Summary of the method: as §1

[3] = ABUTH: velvetleaf (Abutilon theophrasti), read-out: Visual Growth Reduction (%) 14 Days After Application, ABUTH
[4] = AMARE: redroot pigweed (Amaranthus retroflexus), read-out: Visual Growth Reduction (%) 14 Days After Application, AMARE
[5] = BRSNN: oilseed-rape, canola (Brassica napus), read-out: Visual Growth Reduction (%) 14 Days After Application, BRSNN
[6] = CHEAL: lambsquarters (Chenopodium album), read-out: Visual Growth Reduction (%) 14 Days After Application, CHEAL
[7] = EPHHL: wild poinsettia (Euphorbia heterophylla), read-out: Visual Growth Reduction (%) 14 Days After Application, EPHHL
[8] = HELAN: sunflower (Helianthus annuus), read-out: Visual Growth Reduction (%) 14 Days After Application, HELAN
[9] = VIOTR: wild pansy (Viola tricolor), read-out: Visual Growth Reduction (%) 14 Days After Application, VIOTR
[10] = CYPES: yellow nutsedge (Cyperus esculentus), read-out: Visual Growth Reduction (%) 14 Days After Application, CYPES
[11] = DIGSA: crabgrass (Digitaria sanguinalis), read-out: Visual Growth Reduction (%) 14 Days After Application, DIGSA
[12] = ECHCG: barnyardgrass (Echinochloa crus-galli), read-out: Visual Growth Reduction (%) 14 Days After Application, ECHCG
[13] = ORYSA: rice (Oryza sativa), crop, read-out: Visual Growth Reduction (%) 14 Days After Application, ORYSA
[14] = SETFA: giant foxtail (Setaria faberi), read-out: Visual Growth Reduction (%) 14 Days After Application, SETFA
[15] = SORVU: grain sorghum (Sorghum vulgare), read-out: Visual Growth Reduction (%) 14 Days After Application, SORVU
[16] = TRZSS (wheat, Triticum aestivum), crop, read-out: Visual Growth Reduction (%) 14 Days After Application, TRZSS
[17] = ZEAMX: maize, corn (Zea mays), crop, read-out: Visual Growth Reduction (%) 14 Days After Application, ZEAMX

## COC(=O)c1nc(-c2ccc(C#N)c(F)c2F)c(F)c(N)c1Cl [Compound 160]
[1]; [3]
  pest or weed control at 70 g/ha: 30 to 44%
  pest or weed control at 140 g/ha: 45 to 59%
[1]; [4]
  pest or weed control at 70 g/ha: 85 to 94%
  pest or weed control at 140 g/ha: 95 to 100%
[1]; [5]
  pest or weed control at 70 g/ha: 0 to 29%
  pest or weed control at 140 g/ha: 0 to 29%
[1]; [6]
  pest or weed control at 70 g/ha: 60 to 74%
  pest or weed control at 140 g/ha: 75 to 84%
[1]; [7]
  pest or weed control at 70 g/ha: 45 to 59%
  pest or weed control at 140 g/ha: 60 to 74%
[1]; [8]
  pest or weed control at 70 g/ha: 85 to 94%
  pest or weed control at 140 g/ha: 95 to 100%
[1]; [9]
  pest or weed control at 70 g/ha: 0 to 29%
  pest or weed control at 140 g/ha: 0 to 29%
[2]; [10]
  pest or weed control at 70 g/ha: 0 to 29%
  pest or weed control at 140 g/ha: 0 to 29%
[2]; [11]
  pest or weed control at 70 g/ha: 0 to 29%
  pest or weed control at 140 g/ha: 0 to 29%
[2]; [12]
  pest or weed control at 70 g/ha: 0 to 29%
  pest or weed control at 140 g/ha: 0 to 29%
[2]; [13]
  pest or weed control at 70 g/ha: 0 to 29%
  pest or weed control at 140 g/ha: 0 to 29%
[2]; [14]
  pest or weed control at 70 g/ha: 0 to 29%
  pest or weed control at 140 g/ha: 0 to 29%
[2]; [15]
  pest or weed control at 70 g/ha: 0 to 29%
  pest or weed control at 140 g/ha: 0 to 29%
[2]; [16]
  pest or weed control at 70 g/ha: 0 to 29%
  pest or weed control at 140 g/ha: 0 to 29%
[2]; [17]
  pest or weed control at 70 g/ha: 0 to 29%
  pest or weed control at 140 g/ha: 0 to 29%
other
  melting point: 163 to 164 °C

## Nc1c(F)c(-c2ccc(Br)cc2F)nc(C(=O)O)c1Cl [Compound 163]
[1]; [3]
  pest or weed control at 70 g/ha: 85 to 94%
  pest or weed control at 140 g/ha: 85 to 94%
[1]; [4]
  pest or weed control at 70 g/ha: 95 to 100%
  pest or weed control at 140 g/ha: 95 to 100%
[1]; [5]
  pest or weed control at 70 g/ha: 95 to 100%
  pest or weed control at 140 g/ha: 95 to 100%
[1]; [6]
  pest or weed control at 70 g/ha: 95 to 100%
  pest or weed control at 140 g/ha: 95 to 100%
[1]; [7]
  pest or weed control at 70 g/ha: 95 to 100%
  pest or weed control at 140 g/ha: 95 to 100%
[1]; [8]
  pest or weed control at 70 g/ha: 95 to 100%
  pest or weed control at 140 g/ha: 95 to 100%
[1]; [9]
  pest or weed control at 70 g/ha: 95 to 100%
  pest or weed control at 140 g/ha: 95 to 100%
[2]; [10]
  pest or weed control at 70 g/ha: 95 to 100%
  pest or weed control at 140 g/ha: 95 to 100%
[2]; [11]
  pest or weed control at 70 g/ha: 75 to 84%
  pest or weed control at 140 g/ha: 85 to 94%
[2]; [12]
  pest or weed control at 70 g/ha: 85 to 94%
  pest or weed control at 140 g/ha: 85 to 94%
[2]; [13]
  pest or weed control at 70 g/ha: 0 to 29%
  pest or weed control at 140 g/ha: 0 to 29%
[2]; [14]
  pest or weed control at 70 g/ha: 85 to 94%
  pest or weed control at 140 g/ha: 95 to 100%
[2]; [15]
  pest or weed control at 70 g/ha: 85 to 94%
  pest or weed control at 140 g/ha: 85 to 94%
[2]; [16]
  pest or weed control at 70 g/ha: 60 to 74%
  pest or weed control at 140 g/ha: 60 to 74%
[2]; [17]
  pest or weed control at 70 g/ha: 45 to 59%
  pest or weed control at 140 g/ha: 60 to 74%
other
  melting point: 162 to 164 °C

## COC(=O)c1nc(-c2ccc(C(F)(F)F)c(F)c2)c(F)c(N)c1Cl [Compound 165]
[1]; [3]
  pest or weed control at 70 g/ha: 85 to 94%
  pest or weed control at 140 g/ha: 95 to 100%
[1]; [4]
  pest or weed control at 70 g/ha: 85 to 94%
  pest or weed control at 140 g/ha: 85 to 94%
[1]; [5]
  pest or weed control at 70 g/ha: 75 to 84%
  pest or weed control at 140 g/ha: 85 to 94%
[1]; [6]
  pest or weed control at 70 g/ha: 95 to 100%
  pest or weed control at 140 g/ha: 95 to 100%
[1]; [7]
  pest or weed control at 70 g/ha: 95 to 100%
  pest or weed control at 140 g/ha: 95 to 100%
[1]; [8]
  pest or weed control at 70 g/ha: 95 to 100%
  pest or weed control at 140 g/ha: 95 to 100%
[1]; [9]
  pest or weed control at 70 g/ha: 45 to 59%
  pest or weed control at 140 g/ha: 95 to 100%
[2]; [10]
  pest or weed control at 70 g/ha: 95 to 100%
  pest or weed control at 140 g/ha: 95 to 100%
[2]; [11]
  pest or weed control at 70 g/ha: 60 to 74%
  pest or weed control at 140 g/ha: 60 to 74%
[2]; [12]
  pest or weed control at 70 g/ha: 85 to 94%
  pest or weed control at 140 g/ha: 95 to 100%
[2]; [13]
  pest or weed control at 70 g/ha: 0 to 29%
  pest or weed control at 140 g/ha: 0 to 29%
[2]; [14]
  pest or weed control at 70 g/ha: 60 to 74%
  pest or weed control at 140 g/ha: 85 to 94%
[2]; [15]
  pest or weed control at 70 g/ha: 60 to 74%
  pest or weed control at 140 g/ha: 60 to 74%
[2]; [16]
  pest or weed control at 70 g/ha: 45 to 59%
  pest or weed control at 140 g/ha: 45 to 59%
[2]; [17]
  pest or weed control at 70 g/ha: 75 to 84%
  pest or weed control at 140 g/ha: 95 to 100%
other
  melting point: 133 to 135 °C
